Values joined by “and” are separate entries in the source; they are usually repeats but may differ in a detail not shown here. Equal values may be shown once.
Test system: Hs578T complex spheroid growth, percent test/control
Experiment: Anticancer human tumor Hs578T cell line growth inhibition [AhR];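 also: luminescent viability signal as a proxy for spheroid growth; spheroids exposed to agents for one week after three days of growth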
Details: for viability, T/C: stronger effect = lower value; active = viability on the fitted dose curve at most 10% of control; inactive = the rest
In short: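 Spheroids combined tumor cells with HUVEC endothelial cells and human MSCs as stroma. AhR antagonists were paired with standard or investigational drugs, each dosed in half-log steps down from near clinical Cmax, or from 10 microM where Cmax was unknown.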

[1] = curve of first compound, second compound 0.1 µM
[2] = curve of first compound, second compound 0.316 µM
[3] = curve of first compound, second compound 1 µM
[4] = curve of first compound, second compound 3.16 µM
[5] = curve of first compound, second compound 10 µM
[6] = second compound 0.1 µM, first compound 0.00316 µM
[7] = second compound 0.1 µM, first compound 0.01 µM
[8] = second compound 0.1 µM, first compound 0.0316 µM
[9] = second compound 0.1 µM, first compound 0.1 µM
[10] = second compound 0.316 µM, first compound 0.00316 µM
[11] = second compound 0.316 µM, first compound 0.01 µM
[12] = second compound 0.316 µM, first compound 0.0316 µM
[13] = second compound 0.316 µM, first compound 0.1 µM
[14] = second compound 1 µM, first compound 0.00316 µM
[15] = second compound 1 µM, first compound 0.01 µM
[16] = second compound 1 µM, first compound 0.0316 µM
[17] = second compound 1 µM, first compound 0.1 µM
[18] = second compound 3.16 µM, first compound 0.00316 µM
[19] = second compound 3.16 µM, first compound 0.01 µM
[20] = second compound 3.16 µM, first compound 0.0316 µM
[21] = second compound 3.16 µM, first compound 0.1 µM
[22] = second compound 10 µM, first compound 0.00316 µM
[23] = second compound 10 µM, first compound 0.01 µM
[24] = second compound 10 µM, first compound 0.0316 µM
[25] = second compound 10 µM, first compound 0.1 µM
[26] = second compound 0.1 µM, first compound 0.316 µM
[27] = second compound 0.1 µM, first compound 1 µM
[28] = second compound 0.1 µM, first compound 3.16 µM
[29] = second compound 0.1 µM, first compound 10 µM
[30] = second compound 0.316 µM, first compound 0.316 µM
[31] = second compound 0.316 µM, first compound 1 µM
[32] = second compound 0.316 µM, first compound 3.16 µM
[33] = second compound 0.316 µM, first compound 10 µM
[34] = second compound 1 µM, first compound 0.316 µM
[35] = second compound 1 µM, first compound 1 µM
[36] = second compound 1 µM, first compound 3.16 µM
[37] = second compound 1 µM, first compound 10 µM
[38] = second compound 3.16 µM, first compound 0.316 µM
[39] = second compound 3.16 µM, first compound 1 µM
[40] = second compound 3.16 µM, first compound 3.16 µM
[41] = second compound 3.16 µM, first compound 10 µM
[42] = second compound 10 µM, first compound 0.316 µM
[43] = second compound 10 µM, first compound 1 µM
[44] = second compound 10 µM, first compound 3.16 µM
[45] = second compound 10 µM, first compound 10 µM

CC[C@@]1(O)C(=O)OCc2c1cc1n(c2=O)Cc2cc3c(CN(C)C)c(O)ccc3nc2-1 + CC(CO)NC(=O)c1cc(-c2ccc(Cl)cc2)nn(-c2cnn(C)c2)c1=O
> 0.1 µM: IC50 [1] | IC50 [2] | IC50 [3] | IC50 [4] | IC50 [5]
inactive: viability, T/C (second compound 0.1 µM, first compound 0.000316 µM) 120% | viability, T/C (second compound 0.1 µM, first compound 0.001 µM) 115% | viability, T/C [6] 114% | viability, T/C [7] 103% | viability, T/C [8] 83.9% | viability, T/C [9] 82% | viability, T/C (second compound 0.316 µM, first compound 0.000316 µM) 112% | viability, T/C (second compound 0.316 µM, first compound 0.001 µM) 110% | viability, T/C [10] 115% | viability, T/C [11] 98.9% | viability, T/C [12] 89.6% | viability, T/C [13] 84% | viability, T/C (second compound 1 µM, first compound 0.000316 µM) 126% | viability, T/C (second compound 1 µM, first compound 0.001 µM) 123% | viability, T/C [14] 120% | viability, T/C [15] 109% | viability, T/C [16] 91.4% | viability, T/C [17] 103% | viability, T/C (second compound 3.16 µM, first compound 0.000316 µM) 115% | viability, T/C (second compound 3.16 µM, first compound 0.001 µM) 118% | viability, T/C [18] 132% | viability, T/C [19] 93.8% | viability, T/C [20] 82.9% | viability, T/C [21] 86.8% | viability, T/C (second compound 10 µM, first compound 0.000316 µM) 110% | viability, T/C (second compound 10 µM, first compound 0.001 µM) 117% | viability, T/C [22] 110% | viability, T/C [23] 103% | viability, T/C [24] 84.5% | viability, T/C [25] 83.7%

COc1cccc2c1C(=O)c1c(O)c3c(c(O)c1C2=O)CC(O)(C(=O)CO)CC3OC1CC(N)C(O)C(C)O1 (centres undefined) + Cc1ccccc1N=Nc1ccc(NC(=O)c2ccnn2C)c(C)c1
0.24 µM: IC50 [1]
0.279 µM: IC50 [2]
inactive: viability, T/C [8] 89.8% | viability, T/C [9] 72.5% | viability, T/C [26] 44.7% | viability, T/C [27] 10% | viability, T/C [12] 67.9% | viability, T/C [13] 64.2% | viability, T/C [30] 48.3% | viability, T/C [16] 80.4% | viability, T/C [17] 75% | viability, T/C [34] 56.3% | viability, T/C [35] 14.4% | viability, T/C [20] 68.7% | viability, T/C [21] 63.2% | viability, T/C [38] 54.5% | viability, T/C [39] 10.2% | viability, T/C [24] 65.2% | viability, T/C [25] 64.4% | viability, T/C [42] 56.6%
0.368 µM: IC50 [5]
0.373 µM: IC50 [3]
0.353 µM: IC50 [4]
active: viability, T/C [28] 2.16% | viability, T/C [29] 2.24% | viability, T/C [31] 9.72% | viability, T/C [32] 1.94% | viability, T/C [33] 2.15% | viability, T/C [36] 1.79% | viability, T/C [37] 2.15% | viability, T/C [40] 1.55% | viability, T/C [41] 1.85% | viability, T/C [43] 6.88% | viability, T/C [44] 1.17% | viability, T/C [45] 1.93%

Nc1ncn(C2CC(O)C(CO)O2)c(=O)n1 (centres undefined) + Cc1ccccc1N=Nc1ccc(NC(=O)c2ccnn2C)c(C)c1
inactive: viability, T/C [6] 103% | viability, T/C [7] 109% | viability, T/C [8] 97.2% | viability, T/C [9] 98% | viability, T/C [26] 99.2% | viability, T/C [27] 90% | viability, T/C [10] 97.5% | viability, T/C [11] 97.2% | viability, T/C [12] 96.8% | viability, T/C [13] 98.9% | viability, T/C [30] 85.8% | viability, T/C [31] 81.6% | viability, T/C [14] 95.4% | viability, T/C [15] 92% | viability, T/C [16] 106% | viability, T/C [17] 91.8% | viability, T/C [34] 86.2% | viability, T/C [35] 84.9% | viability, T/C [18] 83.3% | viability, T/C [19] 87.2% | viability, T/C [20] 85.9% | viability, T/C [21] 90.8% | viability, T/C [38] 78.5% | viability, T/C [39] 79.8% | viability, T/C [22] 63% | viability, T/C [23] 70.5% | viability, T/C [24] 60.9% | viability, T/C [25] 66% | viability, T/C [42] 63.4% | viability, T/C [43] 68%
> 1 µM: IC50 [1] | IC50 [2] | IC50 [3] | IC50 [4] | IC50 [5]

Nc1ccccc1NC(=O)c1ccc(CNC(=O)OCc2cccnc2)cc1
active: viability, T/C (compound 10 µM) 1.27% and 0.71% and 1.79%
1.64 µM and 1.3 µM and 1.19 µM: IC50 (curve of compound)
inactive: viability, T/C (compound 0.0316 µM) 110% and 93.1% and 105% | viability, T/C (compound 0.1 µM) 94.4% and 93.7% and 104% | viability, T/C (compound 0.316 µM) 90.6% and 82% and 81.3% | viability, T/C (compound 1 µM) 65.3% and 61.6% and 56.3% | viability, T/C (compound 3.16 µM) 29.8% and 16.3% and 22.4%

CC(C)CC(NC(=O)C(Cc1ccccc1)NC(=O)c1cnccn1)B(O)O (centres undefined)
29.3% and 16.7% and 7.03%: viability, T/C (compound 0.00949 µM)
0.00656 µM and 0.00549 µM and 0.0045 µM: IC50 (curve of compound)
active: viability, T/C (compound 0.03 µM) 0.41% and 0.42% and 0.68% | viability, T/C (compound 0.0949 µM) 0.27% and 0.44% and 1.61% | viability, T/C (compound 0.3 µM) 0.58% and 0.42% and 0.53%
inactive: viability, T/C (compound 0.000949 µM) 105% and 102% and 101% | viability, T/C (compound 0.003 µM) 94% and 86.9% and 73.4%

O=C(C=Cc1cccc(S(=O)(=O)Nc2ccccc2)c1)NO + Cc1cncc(-c2nc(NCCc3c[nH]c4ccccc34)c3ncn(C(C)C)c3n2)c1
2.33 µM: IC50 [3]
active: viability, T/C [29] 2.43% | viability, T/C [33] 2.11% | viability, T/C [37] 1.72% | viability, T/C [41] 0.97% | viability, T/C [24] 7.33% | viability, T/C [25] 7.26% | viability, T/C [42] 4.94% | viability, T/C [43] 2.69% | viability, T/C [44] 1.35% | viability, T/C [45] 0.35%
2.57 µM: IC50 [2]
2.28 µM: IC50 [1]
0.75 µM: IC50 [4]
inactive: viability, T/C [8] 122% | viability, T/C [9] 110% | viability, T/C [26] 106% | viability, T/C [27] 75.6% | viability, T/C [28] 39.8% | viability, T/C [12] 103% | viability, T/C [13] 116% | viability, T/C [30] 93.8% | viability, T/C [31] 79.6% | viability, T/C [32] 44% | viability, T/C [16] 113% | viability, T/C [17] 101% | viability, T/C [34] 98.9% | viability, T/C [35] 77.2% | viability, T/C [36] 39.9% | viability, T/C [20] 76.3% | viability, T/C [21] 63.8% | viability, T/C [38] 63.1% | viability, T/C [39] 46.8% | viability, T/C [40] 26.2%
< 0.0316 µM: IC50 [5]
